Test results from patent US20150238487A1, “NOVEL ERGOLINE DERIVATIVES AND USES THEREOF” (MAP Pharmaceuticals, Inc., priority 2012, published 2015).

Legend:
Adenosine A2a = target: T1, Adenosine A2a (Homo sapiens, UniProt P29274); assay: cAMP HTRF assay, Adenosine A2a; type: cell-based; conditions: agonism; HEK293, cAMP
T1 construct: expressed in transfected cells; host or cells: HEK293
Procedure: (§1) Receptor […] activity assays were performed using 8′OH-2-CF3-dihydroergotamine (8′OH-2-CF3-DHE). Table 1 summarizes the cell lines (CHO-K1/HEK293 transfected with relevant human receptor) and the assays performed to detect any agonist or antagonist activity.
cAMP HTRF (Gs) studies were conducted to monitor activity for 8′OH-2CF3-dihydroergotamine (8′OH-2CF3-DHE) against the receptors indicated in Table 1 above. Cells expressing the human recombinant receptor of interest were grown in media without antibiotic and detached by gentle flushing with PBS-EDTA (5 mM EDTA), recovered by centrifugation and resuspended in assay buffer (KRH: 5 mM KCl, 1.25 mM MgSO4, 124 mM NaCl, 25 mM HEPES, 13.3 mM glucose, 1.25 mM KH2PO4, 1.45 mM CaCl2, 0.5 g/L BSA). Dose response curves were performed in parallel with the reference compounds. For agonist tests (96-well plates), 12 μL of cells was mixed with 12 μL of the test compound at increasing concentrations and then incubated for 30 minutes at room temperature. Lysis buffer was added and after a 1 hour incubation, cAMP concentrations was determined according to the manufacturer specification with the HTRF kit. […] Lysis buffer was added and after a 1 hour incubation, cAMP concentrations were determined according to the manufacturer specification, with the HTRF kit.

CCK2 = target: T2, CCK2 (Homo sapiens, UniProt P32239); assay: Aequorin assay, Cholecystokinin CCK2; type: cell-based; conditions: antagonism, CHO-AEQ
T2 construct: expressed in transfected cells; host or cells: CHO-AEQ
T2 sequence (P32239 whole entry): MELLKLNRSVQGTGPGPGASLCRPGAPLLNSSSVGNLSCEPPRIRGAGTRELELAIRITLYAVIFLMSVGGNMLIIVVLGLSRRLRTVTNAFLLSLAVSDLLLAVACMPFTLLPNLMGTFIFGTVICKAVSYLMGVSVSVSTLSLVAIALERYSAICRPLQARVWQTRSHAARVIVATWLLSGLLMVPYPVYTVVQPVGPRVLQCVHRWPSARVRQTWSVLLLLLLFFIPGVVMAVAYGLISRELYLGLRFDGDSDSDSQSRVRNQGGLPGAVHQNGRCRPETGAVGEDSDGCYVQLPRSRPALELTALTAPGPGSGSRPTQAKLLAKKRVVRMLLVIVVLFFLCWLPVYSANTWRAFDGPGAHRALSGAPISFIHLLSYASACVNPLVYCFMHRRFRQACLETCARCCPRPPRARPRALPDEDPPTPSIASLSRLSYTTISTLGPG
Procedure: as §1
(§2) Aequorin assays were conducted to monitor activity for 8′OH-2CF3-dihydroergotamine (8′OH-2CF3-DHE) against the receptors indicated in Table 1 above (except for mGlu3 and mGlu5). CHO-K1 cells coexpressing mitochondrial apoaequorin and the recombinant human receptor of interest were grown to mid-log phase in culture media without antibiotics and then detached with PBS-EDTA, centrifuged and resuspended in assay buffer (DMEM/HAM's F12 with HEPES, without phenol red+0.1% BSA, protease free) at a concentration of 1×10^6 cell/mL. […]
(§3) 50 μL of the cell suspension was mixed with 50 μL of test or reference agonist in a 96-well plate. The resulting emission of light was recorded using Hamamatsu Functional Drug Screening System 6000 (FDSS 6000) luminometer. […]
(§4) To standardize the emission of recorded light (and determine of the “100% signal”) across plates and across different experiments, some wells contained 100 μM digitonin or a saturating concentration of ATP (20 μM).

Adrenergic α1D = target: T3, Adrenergic α1D (Homo sapiens, UniProt P25100); assay: Aequorin assay, Adrenergic α1D; type: cell-based; conditions: antagonism, CHO-K1 mAeq, read-out: Activity (Antagonism: IC50), Adrenergic a1D
T3 construct: expressed in transfected cells; host or cells: CHO-K1 mAeq
T3 sequence (P25100 whole entry): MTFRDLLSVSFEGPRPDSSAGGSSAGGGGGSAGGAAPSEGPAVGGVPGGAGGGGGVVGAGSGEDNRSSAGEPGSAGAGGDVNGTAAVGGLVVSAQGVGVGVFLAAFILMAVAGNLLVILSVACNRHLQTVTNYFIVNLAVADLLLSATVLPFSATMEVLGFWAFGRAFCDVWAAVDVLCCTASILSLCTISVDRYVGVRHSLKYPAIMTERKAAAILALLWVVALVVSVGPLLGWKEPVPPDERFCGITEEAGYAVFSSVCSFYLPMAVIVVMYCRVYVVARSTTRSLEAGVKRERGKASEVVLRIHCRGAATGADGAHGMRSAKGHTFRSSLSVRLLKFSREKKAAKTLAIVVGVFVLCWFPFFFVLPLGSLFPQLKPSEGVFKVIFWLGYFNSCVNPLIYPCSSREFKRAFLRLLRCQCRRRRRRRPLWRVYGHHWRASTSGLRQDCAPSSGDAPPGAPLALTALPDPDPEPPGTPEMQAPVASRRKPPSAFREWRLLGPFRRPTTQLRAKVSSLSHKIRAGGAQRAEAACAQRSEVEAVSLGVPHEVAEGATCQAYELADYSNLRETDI
Procedure: as §1, §2, §3, §4

[1] = tested on: Glutamate (mG1u3/mG1u5/mG1u7); assay: Glutamate receptor assays (Aequorin mGlu3/mGlu5, cAMP mGluR7); type: cell-based, human; conditions: Aequorin (mGluR3, mGluR5)
Procedure: Receptor […] activity assays were performed using 8′OH-2-CF3-dihydroergotamine (8′OH-2-CF3-DHE). Table 1 summarizes the cell lines (CHO-K1/HEK293 transfected with relevant human receptor) and the assays performed to detect any agonist or antagonist activity. […]
For agonist testing, 30 μL of cell suspension was mixed with 30 μL of test or reference agonist in a 384-well plate. The resulting emission of light was recorded using Hamamatsu Functional Drug Screening System 6000 (FDSS 6000) luminometer. […] The resulting emission of light was recorded using Hamamatsu Functional Drug Screening System 6000 (FDSS 6000) luminometer.
cAMP HTRF (Gi) studies were conducted to monitor activity for 8′OH-2CF3-dihydroergotamine (8′OH-2CF3-DHE) against the receptors indicated in Table 1 above. […] Lysis buffer was added and after a 1 hour incubation, cAMP concentrations was determined according to the manufacturer specification with the HTRF kit. […] Lysis buffer was added and after a 1 hour incubation, cAMP concentrations were determined according to the manufacturer specification, with the HTRF kit.

T1 sequence (P29274 whole entry): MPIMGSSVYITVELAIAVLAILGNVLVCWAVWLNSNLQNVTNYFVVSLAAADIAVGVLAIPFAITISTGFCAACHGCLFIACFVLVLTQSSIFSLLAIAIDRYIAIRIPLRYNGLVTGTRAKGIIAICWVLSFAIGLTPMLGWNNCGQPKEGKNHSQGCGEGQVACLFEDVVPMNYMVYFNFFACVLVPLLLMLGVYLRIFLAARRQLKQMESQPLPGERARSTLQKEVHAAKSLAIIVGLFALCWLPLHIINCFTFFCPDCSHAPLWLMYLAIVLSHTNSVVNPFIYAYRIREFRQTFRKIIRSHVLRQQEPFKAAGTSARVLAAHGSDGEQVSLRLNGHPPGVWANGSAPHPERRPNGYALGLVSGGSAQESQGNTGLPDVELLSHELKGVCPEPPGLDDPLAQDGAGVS

Structure (SMILES): CN1C[C@H](C(=O)N[C@]2(C)O[C@@]3(O)[C@@H]4CC[C@@H](O)N4C(=O)[C@H](Cc4ccccc4)N3C2=O)C[C@@H]2c3cccc4[nH]c(C(F)(F)F)c(c34)C[C@H]21 [8′OH-2-CF3-DHE, 8′-Hydroxy-2-CF3-dihydroergotamine]
- EC50 (Adenosine A2a): 5.27 nM
- Emax (Adenosine A2a): 25%
- IC50 (CCK2): > 10000 nM
- IC50 (Adrenergic α1D): 9.58 nM
- Activity (Agonism: EC50; Antagonism: IC50), Glutamate (mG1u3/mG1u5/mG1u7) [1]: Inactive
